Legend:
[1] = Cytotoxicity against human SKOV3 cells after 48 hrs by SRB assay; type: functional, cell-based; conditions: SK-OV-3, 48 h
[2] = Cytotoxicity against human HCT15 cells after 48 hrs by SRB assay; type: functional, cell-based; conditions: HCT-15, 48 h
[3] = test system: A549; experiment: Cytotoxicity against human A549 cells after 48 hrs by SRB assay; type: functional, cell-based; conditions: A549, 48 h
[4] = test system: SK-MEL-2; experiment: Cytotoxicity against human SK-MEL-2 cells after 48 hrs by SRB assay; type: functional, cell-based; conditions: SK-MEL-2, 48 h
[5] = Cytotoxicity against rat C6 cells assessed as viable cells at 20 uM by MTT assay; type: cell-based; conditions: read-out: Activity
[6] = test system: C6; experiment: Stimulation of NGF secretion in rat C6 cells at 20 uM after 24 hrs by ELISA; type: functional
[7] = test system: BV-2; experiment: Anti-neuroinflammatory activity in mouse BV2 cells assessed as inhibition of LPS-induced NO production after 24 hrs by Griess assay; type: functional, cell-based; conditions: BV-2, 24 h
[8] = Cytotoxicity against mouse BV2 cells assessed as viable cells at 20 uM by MTT assay; type: cell-based, BV-2; conditions: read-out: Activity

Compound	IC50 [1] [µM]	IC50 [2] [µM]	IC50 [3] [µM]	IC50 [4] [µM]	viability at 20 µM [5] [%]	Activity [6] [%]	IC50 [7] [µM]	viability at 20 µM [8] [%]
COc1cc([C@@H]2c3cc4c(cc3[C@@H](O[C@@H]3O[C@@H]5CO[C@@H](C)O[C@H]5[C@H](O)[C@H]3O)[C@H]3COC(=O)[C@H]23)OCO4)cc(OC)c1O [ETOPOSIDE]	1.96	2.95	1.74	1.33				
COc1cc(-c2ccccc2O)cc(OC)c1O					119	137.33	38.1	118
COc1ccccc1-c1cc(OC)c(O)c(OC)c1					118	152.86	28.1	138
COc1cc(-c2ccccc2)cc(OC)c1O [AUCUPARIN]					117	125.76	50.1	126
COc1cc(-c2ccccc2)cc(Oc2c(OC)cc([C@@H](O)[C@H](O)CO)cc2OC)c1O [BERBEKORIN A]	4.03	1.96	4.12	4.49	119	155.02	49.3	116
CNC(=N)NCCC[C@H](N)C(=O)O [TILARGININE]							20.5	100
COc1ccc2c(oc3c(OC)c(OC)c(O)cc32)c1O	19.3	> 30	> 30	23.5	113	186.49	15.8	198
CCCCC/C=C/C(=O)CCc1ccc(O)c(OC)c1 [SHOGAOL]					110	158.18		
COc1ccc(-c2cc(OC)c(O)c(Oc3c(OC)cc([C@@H](O)[C@H](O)CO)cc3OC)c2)c(OC)c1	29.5	27.3	12.7	16.3	115	125.81	48.4	132
COc1ccc(-c2cc(OC)c(O)c(OC)c2)c(OC)c1	7.84	7.81	5.18	6.94	119	164.56	39.6	129
